# According to US10849902B2, “Medicament for treating heart failure” (TAKEDA PHARMACEUTICAL COMPANY LIMITED, priority 2015, dated 2020):
# Assays:
# CSQ-Tg mice [1] = experiment: Atrial weight reduction effect in heart failure model animal (CSQ-Tg mice); format: in vivo; conditions: CSQ-Tg male mice, 5 weeks old, 30 mg/kg body weight/day oral QD for 14 days, n=7; p<0.05 vs vehicle (t-test)
# Method: (§1) Calsequestrin (CSQ) cardiac specific transgenic mice (CSQ-Tg mice), which were reported in Larry R. Jones et al., J. Clin. Invest. 101: 1385-1393, 1998, were obtained from University of Pennsylvania, breeded in our company and put in use. In tests, using male and female mice, administration of a medicament was started on and after the mice reached 5 weeks old. The animals were raised in the conditions: room temperature: 20 to 26° c., humidity: 40 to 70%, illumination time: 12 hours/day (7:00-19:00) by giving a solid feed (CE-2, manufactured by CLEA Japan, Inc.) and tap water. In the CSQ-Tg mice, as already reported, Ca^2+ intracellular release was suppressed; myocardial contraction declined and cardiac output decreased. Cardiac hypertrophy and heart failure developed.
# In this example, using CSQ-Tg mice as a heart failure model animal, the atrial weight reduction effect of compound A′ was evaluated.
# Compound A′ was suspended (10 mL/kg) in a 0.5% aqueous methylcellulose solution (hereinafter in Examples, sometimes referred to as a “vehicle”) and orally administered to CSQ-Tg male mice of 5 weeks old with heart failure in a dosage of 30 mg/kg body weight/day once per day (QD) for 14 days (n=7). To negative control (vehicle administration group) mice, a 0.5% aqueous methylcellulose solution was administered (n=9). Thereafter, the atrial weight of the mice was measured.
# CSQ-Tg mice [2] = experiment: Improvement effect on left ventricular hypertrophy and lung weight increase in CSQ-Tg mice; format: in vivo; conditions: CSQ-Tg female mice, 5 weeks old, 30 mg/kg body weight/day oral QD for 14 days, n=10; p<0.05 vs vehicle (t-test)
# Method: as §1
# In this example, the effect of compound A′ in improving left ventricular hypertrophy and lung weight increase caused by heart failure was examined.
# Compound A′ was suspended in a 0.5% aqueous methylcellulose solution (10 mL/kg) and orally administered to CSQ-Tg female mice of 5 weeks old with heart failure in a dosage of 30 mg/kg body weight/day once per day (QD) for 14 days (n=10). […] Thereafter, lung weight (Lung), left-ventricle weight (LV) and body weight (BW) were individually measured and were standardized with the BW.
# CSQ-Tg mice [3] = experiment: Effect on survival rate of heart failure model animals (CSQ-Tg mice); format: in vivo; conditions: CSQ-Tg female mice, 5 weeks old, 30 mg/kg body weight/day oral QD for 30 days, n=30; log-rank test p<0.001 vs vehicle
# Method: as §1
# In this example, effect of compound A′ on survival rate of heart failure model animals was examined.
# Compound A′ was orally administered to CSQ-Tg female mice (n=30) of 5 weeks old in a dosage of 30 mg/kg body weight/day once per day (QD) for 30 days. To negative control (vehicle administration group) mice, a 0.5% aqueous methylcellulose solution was administered (n=30).
# [4] = system: transverse aortic constriction (TAC) model; conditions: Non patent literature 5; cited from earlier work
# [5] = drug administered after the cardiac load is given; Non patent literature 6; cited from earlier work
SMILES,"Left atrial weight, average value (CSQ-Tg mice [1])","LV/BW (left-ventricle weight standardized with body weight), average value ± standard deviation (CSQ-Tg mice [2])","Lung/BW (lung weight standardized with body weight), average value ± standard deviation (CSQ-Tg mice [2])","Survival rate (Kaplan-Meier, FIG. 1) (CSQ-Tg mice [3])",Cardiac hypertrophy [4],Cardiac hypofunction [5]
CCc1ccc(C(CC)(CC)NC(=O)c2c(C)nn3c2N[C@@H](c2ccccc2)CC3(C)C)cc1 [Compound A′],8.4 mg,7.9 ± 1.0,6.8 ± 1.3,significantly improved,–,–
C[C@@H](N[C@H]1CCCC[C@@H]1NC(=O)c1ccc(Cl)cc1)c1cccc2ccccc12 [Calhex231],–,–,–,–,cardiac hypertrophy is improved,cardiac hypofunction is not improved
